# Assay: Thermodynamic solubility of the compound in monobasic potassium phosphate buffer at pH 7.4 after 24 hrs by LC-MS/MS analysis
# Assay type: physicochemical
# Settings: read-out: Therm_solubility
smiles,measurement,value
CN(c1ccc(Cl)cc1)c1ccc(C(=O)c2ccc(C(=O)C3(c4ccccc4)CCCCC3)c(C(=O)O)c2)nc1,solubility thermodynamic at 24 h,7 µM

# Reference: ChEMBL document CHEMBL3880387, “Bis aromatic compounds for use as LTC4 synthase inhibitors” (2013)
